Reference: US20230150920A1, “SALTS AND SOLID FORMS OF 4-BROMO-2,5-DIMETHOXYPHENETHYLAMINE” (priority 2021, published 2023)
Counter-ions that a name gives are not always drawn.

What was measured:
[1] = Experimental: Solubilities in water were estimated for the majority of the salts identified during screening. The experiments were carried out by adding water in aliquots to weighed portions of solid. […] Values are reported as “≥” if complete dissolution was observed upon the first aliquot.
[2] = Deliquescence at 75% RH at ambient temperature; format: physicochemical
[3] = Dynamic vapor sorption/desorption (DVS), hygroscopicity; format: physicochemical
Experimental: The active pharmaceutical ingredient (API), 4-bromo-2,5-dimethoxyphenethylamine hydrochloride, is characterized to evaluate its physical properties. The evaluation is performed by X-ray powder diffraction (XRPD), polarized light microscopy (PLM), differential scanning calorimetry (DSC), thermogravimetry (TG), dynamic vapor sorption/desorption (DVS), and/or solubility testing in organic solvents, water, and mixed solvent systems. XRPD data are used to assess crystallinity. PLM data are used to evaluate crystallinity and particle size/morphology. DSC data are used to evaluate melting point, thermal stability, and crystalline form conversion. TG data are used to evaluate if the API is a solvate or hydrate, and to evaluate thermal stability. DVS data are used to evaluate hygroscopicity of the API and if hydrates can be formed at high relative humidity.
The form characterized in FIGS. 1 and 2 is designated as Form A herein. […] A sharp endotherm at 238° C. in the DSC thermogram is attributed to melting.

[4] = Dynamic vapor sorption (DVS) with XRPD of the post-DVS sample; format: physicochemical
Experimental: Dynamic Vapor Sorption (DVS) analysis was carried out using a TA Instruments Q5000 Dynamic Vapor Sorption analyzer. The instrument was calibrated with standard weights and a sodium bromide standard for humidity. Approximately 10-25 mg of sample was loaded into a metal-coated quartz pan for analysis. The sample was analyzed at 25° C. with a maximum equilibration time of one hour in 10% relative humidity (RH) steps from 5 to 95% RH (adsorption cycle) and from 95 to 5% RH (desorption cycle). The movement from one step to the next occurred either after satisfying the equilibrium criterion of 0.01% weight change or, if the equilibrium criterion was not met, after one hour. The percent weight change values were calculated using Microsoft Excel.
(§1) The DVS analysis was carried out using a TA Instruments Q5000 Dynamic Vapor Sorption analyzer. 13.5 mg of sample was loaded into a metal-coated quartz pan for analysis. After equilibration to 5% relative humidity (RH), the sample was analyzed at 25° C. in 10% RH steps from 5 to 95% RH (adsorption cycle) and from 95 to 5% RH (desorption cycle). The movement from one step to the next occurred either after satisfying the equilibrium criterion of 0.01% weight change in 5 minutes or, if the equilibrium criterion was not met, after 90 minutes. The percent weight change values are calculated using Microsoft Excel®.
as §1, with “DVS analyses were” for “DVS analysis was”, “analyzer. Approximately 7-11” for “analyzer. 13.5”, “equilibration at” for “equilibration to”, “values were” for “values are”
as §1, with “analyzer. Approximately 2” for “analyzer. 13.5”, “equilibration at” for “equilibration to”, “values were” for “values are”

[5] = Estimated solubilities of 2C-B HCl in solvents; conditions: thermodynamic from solid
[6] = Solubility estimate by adding solvent aliquots to weighed solid, dissolution judged visually; conditions: thermodynamic from solid
[7] = MeOH/CHCl3 50/50, organic solvent or mixture
[8] = acetone, organic solvent or mixture
[9] = acetone/H2O 80/20, organic solvent or mixture

2C-B malate
Kinetic water solubility [1]: 6 mg/mL | estimated kinetic solubility in water ([1]; room temperature, visually determined): 6 mg/mL | aqueous solubility (kinetic) ([1]; water, kinetic estimate): 6 mg/mL aqueous | Estimated kinetic aqueous solubility ([1]; water, room temperature, * = a few particulates/flakes remaining (see comments)): 6 mg/mL | deliquescence ([2]; at 75% RH): Did not deliquesce | deliquescence ([2]; several days at 75% RH at ambient temperature): not observed | Water uptake (5-85% RH) % ([3]; 5-85% RH part of sorption): 0.6% | Water uptake (85-95% RH) % ([3]; 85-95% RH part of sorption): (5-85); 1 (85-95) % | Hygroscopicity: weight gain ([3]; <85% RH): RH: 0.6% | Hygroscopicity: weight gain ([3]; >85% RH): RH: 1.0% gain | Hygroscopicity ([3]; grade in words, from DVS): Slightly | Water uptake (5-95% RH) % ([3]; total, 5-95% RH): 1.6% | hygroscopicity based on DVS data ([4]; 25° C., 5 to 95% RH): slightly hygroscopic | moisture gain by DVS ([4]; 25° C., adsorption 5 to 95% RH): 1.6% | moisture gain by DVS, equivalent moles of water ([4]; 25° C., adsorption 5 to 95% RH): approximately 0.4 moles | post-DVS XRPD result ([4]; XRPD of the post-DVS sample): Consistent with Malate | DVS desorption weight loss, 85-5% RH ([4]; desorption 85-5% RH): 85-5% RH: 0.6% loss | DVS desorption weight loss, 95-85% RH ([4]; desorption 95-85% RH): 95-85% RH: 1.0% loss | behaviour on desorption / form change by XRPD of post-DVS sample ([4]; desorption 95 to 5% RH): all the gained moisture is lost without form change | DVS desorption total loss ([4]; desorption, total): Total loss: 1.6% | DVS sorption weight gain, 5-85% RH ([4]; sorption 5-85% RH): 5-85% RH: 0.6% gain | DVS sorption weight gain, 85-95% RH ([4]; sorption 85-95% RH): 85-95% RH: 1.0% gain | DVS sorption total gain ([4]; sorption, total): Total gain: 1.6%

COc1cc(CCN)c(OC)cc1Br.Cl [2C-B HCl, 4-bromo-2,5-dimethoxyphenethylamine HCl]
DVS Sorption: weight gain ([3]; 5-95% RH): 5-95% RH: 0.9% gain | DVS Desorption: weight loss ([3]; 95-5% RH): 95-5% RH: 1.0% loss | post-DVS XRPD ([4]; solid form after DVS cycle): Form A | solubility ([5]; ACN, organic solvent or mixture): < 1 mg/mL | solubility ([5]; EtOAc, organic solvent or mixture): < 2 mg/mL | solubility ([5]; EtOH, organic solvent or mixture): 13 mg/mL | solubility ([5]; H2O, water): 34 mg/mL | solubility ([5]; IPA, organic solvent or mixture): < 2 mg/mL | solubility ([5]; MeOH, organic solvent or mixture): 41 mg/mL | solubility [5, 7]: 41 mg/mL | solubility ([5]; THF, organic solvent or mixture): < 2 mg/mL | solubility [5, 8]: < 2 mg/mL | solubility [5, 9]: ≥ 79 mg/mL

COc1cc(CCN)c(OC)cc1Br [2C-B.HCl, 4-bromo-2,5-dimethoxyphenethylamine hydrochloride]
solubility [6, 7]: 41 mg/mL | solubility [6, 8]: < 2 mg/mL | solubility [6, 9]: > 79 mg/mL | solubility ([6]; acetonitrile, organic solvent or mixture): < 1 mg/mL | solubility ([6]; ethanol, organic solvent or mixture): 13 mg/mL | solubility ([6]; ethyl acetate, organic solvent or mixture): < 2 mg/mL | solubility ([6]; isopropanol, organic solvent or mixture): < 2 mg/mL | solubility ([6]; methanol, organic solvent or mixture): 41 mg/mL | solubility ([6]; tetrahydrofuran, organic solvent or mixture): < 2 mg/mL | solubility ([6]; water): 34 mg/mL
